The record followed here is patent publication US11696904B2, “Prodrug for therapeutic applications” (The Regents of the University of California, priority 2020, dated 2023).

Structures are written as SMILES. A value given as a limit tells only on which side of the number the result lay.

In series [1] the test system is nutrient transporter associated protein 4F2hc. Kind of series: Nutrient transporter expression (surface 4F2hc, flow cytometry). In kind it is cell-based, murine. The settings on record: FL5.12 cells, 3 h treatment, compared to fingolimod. The protocol: Cell culture. Murine IL-3-dependent proB-cell lymphoid FL5.12 cells and FL5.12/BCR-Abl p190 cells were obtained by gift. FL5.12/p190 cells were transduced to express firefly luciferase by lentiviral vectors purchased from Capital Bioscience (Gaithersberg, Md.). FL5.12/p190 and luciferase-expressing FL5.12/p190 cells (FL5.12/p190/Luc cells) were maintained at 250,000-800,000 cells/mL in RPMI 1640 media containing 10% (v/v) FBS and 1% (v/v) streptomycin-penicillin. FL5.12 cells were cultured in the same media supplemented with 5 ng/mL IL3. All cells were cultured at 37° C. with 5% CO2 and 100% humidity.
Nutrient transporter expression. Surface 4F2hc expression was measured using phycoerythrin (PE)-conjugated rat anti-mouse 4F2hc antibody (BD Pharmingen, San Diego, Calif.); analysis by flow cytomery was restricted to viable cells. PE-conjugated mouse IgG1, k (BD Pharmingen) was used as an isotype control. Cells were analyzed on a BD LSR II flow cytometer (BD Biosciences, San Jose, Calif.) and with FlowJo software (Treestar, Ashland, Oreg.).
To confirm active drug was released selectively upon acid-hydrolysis, drugs were incubated in buffers of pH 7.4 and pH 5.0 prior to incubation with the cells (see FIG. 8). Fingolimod was pre-incubated in the same buffers to rule out the possibility that the buffers would affect drug's activity or contribute to cell apoptosis. […]
(A flow cytometer gives signals particle by particle.)

Series [2] is described as follows: Water solubility of FTY prodrugs. In kind it is physicochemical. The following applies: for water solubility: qualitative. From the text: Design and synthesis of FTY-k-PEG. Acetals (ketals) were chosen for their structural versatility, facile synthesis, and tunable cleavability under mildly acidic conditions. The endosomal pH of ˜5.0 is an excellent intracellular trigger for drug release from acid-labile drug conjugates. Initial synthetic methodology utilized 2-methoxypropene to generate methyl ketal-functionalized fingolimod (mkFTY) (see FIG. 2). […] To retain the ketal moiety while increasing solubility of the prodrug, N-Fmoc piperidone was used to generate a cyclic ketal in kFTY (7) (see FIG. 3), eliminating the hydrophobic methyl groups and incorporating a secondary amine as a functional handle for further conjugation. The ketal formation was achieved using azeotropic distillation by which constant removal of water efficiently drives the reaction to completion. […] To further increase water solubility, kFTY was conjugated to succinimidyl carboxyl methyl ester polyethylene glycol (SCM-PEG 5 k) prior to trifluoroacetamide (TFA)-deprotection to produce FTY-k-PEG (8). FTY-k-PEG was analyzed by MALDI-TOF to confirm PEGylation and TFA-deprotection (see FIG. 4). […] Other macromolecules may be used for conjugation, and a plethora of stimuli-responsive linkers may be explored to further enhance the specificity and safety of an FTY prodrug. The acid-cleavable ketal linkage can be replaced by other moieties responsive to intrinsic environmental stimuli (redox, pH, etc.), external stimuli (heat, ultrasound, photo-irradiation, electrochemical, magnetic, etc.), or specific biological processes (enzymatic cleavage, ion chelation, etc.), depending the molecular structure of a drug and the stimuli to be utilized for target indication. In addition, a variety of macromolecules can also be used in lieu of PEG, including polysaccharides (i.e., hyaluronic acids), peptides, and various synthetic polymers for improved water-solubility, extended circulation, avoided premature activation, nanoparticle formulation, theranostic applications, combating resistance, and specific targeting. […]

The test system of series [3] is FL5.12/p190-Luc cells. Put plainly: In vivo bioluminescence imaging, BCR-Abl-driven leukemogenesis model. The following applies: 32 μmol/kg daily i.p., day 6, Balb/c mice, p<0.01. The procedure:
In vivo bioluminescence imaging. In an immunocompetent syngeneic model, 6-7 weeks old Balb/c female mice were intravenously injected with Ph+FL5.12/p190/Luc cells (1.0×10^5 cells per mouse) in the tail vein. After 5 days, the mice received daily i.p. injections of fingolimod, FTY-k-PEG, FTY-PEG (all at a dose of 32 μmol/kg) or PBS for 5 days (n=5). Mice were placed under anesthesia using isoflurane (Patterson Veterinary, Greeley, Colo.) and interperitoneally injected with 120 mg/kg of synthetic firefly luciferin (Promega, Madison, Wis.) in PBS at a concentration of 20 mg/mL immediately prior to bioluminescence imaging with an IVIS Lumina system (Caliper Life Sciences, Hopkinton, Mass.) for 4 min. Mice were under anesthesia for the entire duration of imaging and bioluminescence signal intensities in mice were quantified using Living Image 3.2 software associated with the imaging system.
Preserved anti-leukemic effect of FTY-k-PEG in vivo. To assess the anti-leukemic effects of FTY-k-PEG in vivo while eliminating bradycardia and immunosuppressive activity, a BCR-Abl-driven leukemogenesis model in which fingolimod is effectively was used. […] The leukemic expansion of FL5.12/p190-Luc cells was assessed by i.p. administration of synthetic firefly luciferin (120 mg/kg) and subsequent bioluminescence imaging (see FIG. 12B-D). […]

Series [4] concerns circulating B and T lymphocytes. Put plainly: Lymphocyte sequestration. In kind it is in vivo, mice. The following applies: 10 mg/kg (32 μmol/kg) i.p., blood 12 h post-injection, compared to saline or FTY-k-PEG. The procedure: Lymphocyte sequestration. Female 8-24 week old C57BL6 mice were intraperitoneally injected with vehicle (0.9% saline or 20% acidified DMSO in 0.9% saline), 10 mg/kg (32 μmol/kg) fingolimod, or 155 mg/kg FTY-k-PEG (32 μmol/kg). After 12 h, blood was collected from the retro-orbital sinus under ketamine/xylazine anesthesia. Whole blood (10 μL) was added to 190 μL of ACK red blood cell lysis buffer, the mixture was incubated at ambient temperature for 3-5 min […], and the white blood cells were recovered by centrifugation. Nucleated cells (Hoechst33342-positive) were counted using a hemocytometer to obtain the white blood cell count. Separately, 50 μL of whole blood was added to 1 mL of ACK red blood cell lysis buffer and incubated for 3-5 min at RT. Cells were washed with 2% fetal calf serum (FCS, Atlanta Biologicals (Flowery Branch, Ga.) in PBS with 0.05% NaN3 (Sigma Aldrich (Milwaukee, Wis.)) and red blood cell lysis was repeated. Tubes were decanted and resuspended in 100 μL of 10% FCS in PBS with 0.05% NaN3 and directly conjugated antibodies against B220, CD4, or CD8 (all from Biolegend, San Diego, Calif.) for 30 min on ice. Cells were analyzed on a BD LSR II flow cytometer; the analysis was restricted to live cells (DAPI-negative).
Avoided bradycardia and lymphopenia in vivo by FTY-k-PEG. […]

For series [5], the system named is C57BL/6 mice. Put plainly: Heart rate (ECG telemetry). It counts as in vivo. The following applies: single i.p. dose 10 mg/kg, monitored 10 h, conscious mice. An excerpt: Heart rate. Male C57BL/6 mice age 4-6 months were surgically implanted with DSI TA-ETAF20 electrocardiographic telemetry devices (Data Sciences International, St. Paul, Minn.) in the mouse's abdominal cavity with biopotential leads sutured in place in the chest wall. The electrocardiographic data was collected and recorded using the PhysioTel telemetry system and Dataquest A.R.T 4.0 software (Data Sciences International). Mice were permitted two week-long recovery after surgery before initiation of baseline telemetry recordings. Heart rate was calculated from ECG data taken in the freely moving, conscious mice. Mice (n=3) were intraperitoneally treated with a single dose of vehicle (0.9% saline or 20% acidified DMSO in 0.9% saline), 10 mg/kg fingolimod, or 155 mg/kg FTY-k-PEG, and heart rate was continuously monitored for 10 h. Mice were rested for two weeks at which point the experiment was repeated with the mice assigned to the alternate group. […]
Avoided bradycardia and lymphopenia in vivo by FTY-k-PEG. To test whether FTY-k-PEG avoids bradycardia, C57BL/6 mice were surgically implanted with an electrocardiographic telemetry device and heart rate was calculated from ECG data taken in the freely moving, conscious mice after intraperitoneal (i.p.) injection of saline, fingolimod, or acid-cleavable FTY-k-PEG (see FIG. 10A). […]

Series [6] can be described thus: DNAge (epigenetic aging clock) analysis. The following applies: healthy BALB/c mice, 32 μmol/kg daily i.p., blood two days post-treatment. It counts as in vivo. The procedure: DNAge® (epigenetic aging clock) analysis. Blood samples (100 μL) were collected in triplicate from healthy female BALB/c mice treated as described above. Upon immediate preservation in DNA/RNA Shield™ (Zymo Research, Irvine, Calif.), genomic DNA was purified using Quick-DNA Plus Kit (Zymo Research) as instructed by the manufacturer. Sample library preparation and data analysis for mouse DNAge® (epigenetics aging clock) were performed by service provider (Zymo Research). Briefly, genomic DNA (200 ng) was bisulfite-converted using EZ DNA Methylation_Lightning™ Kit (Zymo Research). Bisulfite-converted DNA libraries for targeted bisulfite sequencing platform, called SWARM® (Simplified Whole-panel Amplification Reaction Method), were sequenced on a HiSeq 1500 sequencer for >1,000× coverage. Sequence reads were identified using Illumina base calling software (San Diego, Calif.) and aligned to the reference genome using Bismark, an aligner optimized for bisulfite sequence data and methylation calling. The methylation level of each sampled cytosine was estimated as the number of reads reporting a C, divided by the total number of reads reporting a C or T. DNA methylation levels of >500 age-related CpG loci were used for age prediction using Zymo Research's proprietary […] DNAge® algorithms: […]

`CCCCCCCCc1ccc(CCC2(N)COC(C)(C)OC2)cc1` [mkFTY]: the “down-regulation of surface 4F2hc expression” value in series [1] is reported as “nearly identical efficacy to fingolimod”. Moreover, in series [2], the water solubility result is listed as “loss of water solubility”.
Regarding `CCCCCCCCc1ccc(CCC2(N)COC3(CCNCC3)OC2)cc1` [kFTY], in series [2], the “concentration up to which readily soluble in water” value is at most 10000 µM and the water solubility result was “increased water solubility compared to mkFTY”.
Turning to `CCCCCCCCc1ccc(CCC(N)(CO)CO)cc1` [fingolimod, Fingolimod], the “average bioluminescence signal lower than that of PBS” value in series [3] was 64%. This compound also returned a reduction of lymphocytes in series [4] of around 60%. The “reduction of heart rate” value in series [5] came out at 50%. For the same compound, the epigenetic age result in series [6] is on record as “significant increase in epigenetic age”.
